Entries after “also recorded” stand apart in the source; their conditions may differ. Where a SMILES comes first, the peptide text is derived from it. Where no end group is shown, it is not given here. [ ]: non-standard residue; d: D form. The star is where a group is joined. APBA = (2-acetyl-5-(3-(2-iodoacetamido)propoxy)phenyl)boronic acid, Cys modified with it (Cm in name), CC(=O)c1ccc(OCCCNC(=O)C*)cc1B(O)O; X1 = CC(=O)c1ccc(OCCCNC(=O)C*)cc1B(O)O; Dap = NC[C@H](N)C(=O)O; Cam = NC(=O)C*
Experiments:
streptavidin = streptavidin (Streptomyces avidinii, UniProt P22629); assay type: binding; settings: for fluorescence brightness of streptavidin beads on addition of BSA: BSA 1 mg/mL; for fluorescence staining of streptavidin beads after surface lysine acetylation: beads treated with Ac-NHS, 3 mM; for fluorescence staining of streptavidin-coated beads: excess biotin present; for effect of biotin on fluorescence staining of streptavidin-coated beads: with and without biotin; for staining of streptavidin-coated beads by SrtA screen peptides: even at 25 μm; for staining of streptavidin beads without SrtA coating: streptavidin beads alone, no SrtA
streptavidin, sequence (P22629 37-163 limits assumed): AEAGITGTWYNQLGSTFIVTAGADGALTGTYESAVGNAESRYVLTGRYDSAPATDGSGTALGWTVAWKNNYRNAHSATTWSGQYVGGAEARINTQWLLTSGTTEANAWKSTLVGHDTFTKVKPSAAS

sortase A (SrtA) [1] = biological target: T1, sortase A (SrtA) (Staphylococcus aureus, UniProt Q2FV99); assay type: binding, S. aureus; settings: for fluorescence staining of SrtA-coated beads: peptide at 25 μM; for staining of SrtA-coated beads in the presence of BSA: 10 mg/mL BSA
T1 sequence (Q2FV99 whole entry): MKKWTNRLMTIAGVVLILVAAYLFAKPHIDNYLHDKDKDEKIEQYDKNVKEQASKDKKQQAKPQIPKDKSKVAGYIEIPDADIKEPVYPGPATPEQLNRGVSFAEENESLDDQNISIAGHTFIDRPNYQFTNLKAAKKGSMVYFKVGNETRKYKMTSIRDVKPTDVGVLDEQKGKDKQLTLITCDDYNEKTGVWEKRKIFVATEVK

sortase A (SrtA) [2] = biological target: T1, sortase A (SrtA); settings: competition with DMMA
Source text: To probe the peptides' binding site on SrtA, a competition experiment was designed using a known small molecule inhibitor of SrtA, DMMA (FIG. 8E).

Molecule | fluorescence brightness of streptavidin beads on addition of BSA (streptavidin) | fluorescence staining of streptavidin beads after surface lysine acetylation (streptavidin) | fluorescence staining of streptavidin-coated beads (streptavidin) | effect of biotin on fluorescence staining of streptavidin-coated beads (streptavidin) | staining of streptavidin-coated beads by SrtA screen peptides (streptavidin) | staining of streptavidin beads without SrtA coating (streptavidin) | fluorescence staining of SrtA-coated beads (sortase A (SrtA) [1]) | staining of SrtA-coated beads in the presence of BSA (sortase A (SrtA) [1]) | effect of DMMA addition on SrtA binding (sortase A (SrtA) [2])
CC(=O)c1ccc(OCCCNC(=O)CSC[C@H](NC(=O)[C@H](C)N)C(=O)N[C@H](C(=O)N2CCC[C@H]2C(=O)N[C@@H](CCCNC(=N)N)C(=O)N[C@@H](CO)C(=O)N[C@@H](C)C(=O)N[C@@H](CC(N)=O)C(=O)N[C@@H](Cc2ccc(O)cc2)C(=O)N[C@@H](CSCC(=O)NCCCOc2ccc(C(C)=O)c(B(O)O)c2)C(=O)NCC(=O)NCC(=O)NCC(=O)N[C@@H](CN)C(N)=O)[C@@H](C)O)cc1B(O)O [SA1, ACmTPRSANYCmGGGDap] (H-AC(X1)TPRSANYC(X1)GGG[Dap]-NH2; N-terminus and C-terminus assumed) | minimally affected | completely abolished the fluorescence staining | fluorescence staining of the beads at low micromolar concentrations | marginal differences in fluorescence intensity with and without biotin |  |  |  |  | 
AcmTPRSANYCmGGGDap (AC(Cam)TPRSANYC(APBA)GGG[Dap]; not fully specified (residue 14); also: fluorescent label on Dap, identity not given here) [SA1-IA, reference compound] |  |  | failed to stain the streptavidin beads |  |  |  |  |  | 
ACmIQKNTTTCmGGGDap (AC(APBA)IQKNTTTC(APBA)GGG[Dap]; not fully specified (residue 14); also: APBA dimer modification, fluorescent label on Dap14) [W3] |  |  |  |  | fail to stain streptavidin-coated beads | no fluorescence staining of the streptavidin beads alone | weak fluorescence staining of SrtA-coated beads; also recorded: much lower fluorescence staining of the beads |  | 
CC(=O)c1ccc(OCCCNC(=O)CSC[C@H](NC(=O)[C@H](C)N)C(=O)N[C@@H](CC(C)C)C(=O)N[C@@H](CC(N)=O)C(=O)N[C@@H](CO)C(=O)N[C@@H](CO)C(=O)N[C@@H](CCC(N)=O)C(=O)N2CCC[C@H]2C(=O)N[C@@H](CO)C(=O)N[C@@H](CSCC(=O)NCCCOc2ccc(C(C)=O)c(B(O)O)c2)C(=O)NCC(=O)NCC(=O)NCC(=O)N[C@@H](CN)C(N)=O)cc1B(O)O [W2, ACmLNSSQPSCmGGGDap] (H-AC(X1)LNSSQPSC(X1)GGG[Dap]-NH2; N-terminus and C-terminus assumed) |  |  |  |  | fail to stain streptavidin-coated beads | little binding to the agarose beads | strong fluorescence staining of the SrtA-coated beads | effective binding; also recorded: stain the SrtA coated beads | binds the SrtA surface instead of the catalytic site; also recorded: no inhibition of the SrtA binding
AcmDGRPDRACmGGGDap (AC(Cam)DGRPDRAC(APBA)GGG[Dap]; not fully specified (residue 14); also: fluorescent label on Dap, identity not given here) [SA2-IA, reference compound] |  |  | failed to stain the streptavidin beads |  |  |  |  |  | 
CC(=O)c1ccc(OCCCNC(=O)CSC[C@H](NC(=O)[C@H](C)N)C(=O)N[C@@H](CC(=O)O)C(=O)NCC(=O)N[C@@H](CCCNC(=N)N)C(=O)N2CCC[C@H]2C(=O)N[C@@H](CC(=O)O)C(=O)N[C@@H](CCCNC(=N)N)C(=O)N[C@@H](C)C(=O)N[C@@H](CSCC(=O)NCCCOc2ccc(C(C)=O)c(B(O)O)c2)C(=O)NCC(=O)NCC(=O)NCC(=O)N[C@@H](CN)C(N)=O)cc1B(O)O [SA2, ACmDGRPDRACmGGGDap] (H-AC(X1)DGRPDRAC(X1)GGG[Dap]-NH2; N-terminus and C-terminus assumed) | minimally affected | greatly reduced the fluorescence staining | fluorescence staining of the beads at low micromolar concentrations | marginal differences in fluorescence intensity with and without biotin |  |  |  |  | 
CC(=O)c1ccc(OCCCNC(=O)CSC[C@H](NC(=O)[C@H](C)N)C(=O)N[C@@H](Cc2c[nH]cn2)C(=O)N2CCC[C@H]2C(=O)N[C@H](C(=O)N[C@@H](CO)C(=O)NCC(=O)N[C@@H](CCC(N)=O)C(=O)N[C@@H](CCCCN)C(=O)N[C@@H](CSCC(=O)NCCCOc2ccc(C(C)=O)c(B(O)O)c2)C(=O)NCC(=O)NCC(=O)NCC(=O)N[C@@H](CN)C(N)=O)C(C)C)cc1B(O)O [W1, ACmHPVSGQKCmGGGDap] (H-AC(X1)HPVSGQKC(X1)GGG[Dap]-NH2) |  |  |  |  | fail to stain streptavidin-coated beads | little binding to the agarose beads | strong fluorescence staining of the SrtA-coated beads | greater inhibition was observed | no inhibition of the SrtA binding
ACmTPNKTPKCmGGGDap (AC(APBA)TPNKTPKC(APBA)GGG[Dap]; not fully specified (residue 14); also: APBA dimer modification, fluorescent label on Dap14) [W4] |  |  |  |  | fail to stain streptavidin-coated beads | no fluorescence staining of the streptavidin beads alone | weak fluorescence staining of SrtA-coated beads; also recorded: much lower fluorescence staining of the beads |  | 

— US12116698B1, “Protein surface recognition via chemically enhanced phage display” (The Trustees of Boston College, priority 2019, dated 2024)
